# In US5591602A (priority 1993, dated 1997):
# Legend:
# ε receptors = experiment: inhibition of cAMP formation in BHK cells expressing ε receptors; format: cell-based, human
# κ and ε sites = settings: brain; Chang et al., 1981; cited from earlier work
# [1] = system: U-69, 593 insensitive benzoinorphan site; settings: Nock et al., 1993; cited from earlier work
# ε opioid receptor = target: T1, ε opioid receptor (Homo sapiens, UniProt P48145); experiment: ligand affinity/interaction profile of the cloned receptor; format: binding
# T1 construct: a 2 kb fragment was removed from the 5' untranslated region of the gene and the shortened insert (2.5 kb) was subcloned; expressed in transfected cells; host or cells: COS and BHK cells (pRC/CMV vector)
# T1 sequence (P48145 1-328 S296T): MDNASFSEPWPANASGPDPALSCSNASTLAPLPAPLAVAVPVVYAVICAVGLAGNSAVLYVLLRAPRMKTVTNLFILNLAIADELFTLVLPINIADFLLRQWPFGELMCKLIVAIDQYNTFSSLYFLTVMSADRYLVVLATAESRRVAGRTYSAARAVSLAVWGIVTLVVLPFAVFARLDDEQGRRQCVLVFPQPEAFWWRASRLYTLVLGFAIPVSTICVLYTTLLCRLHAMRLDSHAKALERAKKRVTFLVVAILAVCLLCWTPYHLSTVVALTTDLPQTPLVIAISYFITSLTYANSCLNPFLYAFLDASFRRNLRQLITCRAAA
# enkephalins = settings: peripheral administration; Bertolucci et al., 1992; cited from earlier work
# μ receptors = settings: cited from earlier work
# [2] = system: all known opioid receptor subtypes; settings: cited from earlier work
compound,measurement,setting,value
CN1CC[C@]23CCCC[C@H]2[C@H]1Cc1ccc(O)cc13 [levorphanol],inhibition of cAMP formation,ε receptors,inhibition of cAMP formation
CC[C@]12CCN(CC3CC3)[C@H](C(=O)c3ccc(O)cc31)[C@@H]2C [ethylketocyclazocine],labelling of opioid binding sites (in words),κ and ε sites,"label two populations of non-μ, non-δ opioid binding sites"
β-endorphin: endogenous opioid peptide with high affinity for the ε receptor,"affinity for the U-69,593 insensitive site (in words)",[1],high affinity
same,affinity of the receptor for the ligand (in words),ε opioid receptor,high affinity
CN1CC[C@]23c4c5ccc(O)c4O[C@H]2[C@@H](O)C=C[C@H]3[C@H]1C5 [Morphine],release of enkephalins (in words),enkephalins,induces release of enkephalins
same,interaction with μ receptors (in words),μ receptors,interacts principally with μ receptors
CCC12CCN(CC3(O)CC3)C(Cc3ccc(O)cc31)C2(C)C (stereo not shown) [[^3 H]bremazocine],affinity for all known opioid receptor subtypes (in words),[2],high affinity
